Test results taken from US20140357688A1, “METHOD FOR INHIBITING EZH2 EXPRESSION IN BREAST CANCER CELLS” (Yung Shin Pharm. Ind. Co., Ltd., priority 2013, published 2014).

How the values were obtained:
MDA-MB-468 xenograft = assay: MDA-MB-468 breast cancer xenograft animal model; format: in vivo, Nu/Nu mice
Protocol: MDA-MB-468 cells were used to inoculate Nu/Nu mice. (A, left) Tumor bearing mice were given vehicle (10 μl DMSO, CTL) or YC-1 (30 and 60 mg/kg/day) by ip treatment. (B, right) Tumor bearing mice were given vehicle (normal saline, CTL) or YC-1-succinate (YC-1-S; 20, 40, and 80 mg/kg/day) by oral administration. During treatment period, tumor volume and body weights of mice were measured once per 3 days. Data are expressed as mean of tumor volume (mm^3)±S.E.M. from 6 mice (YC-1 treatment) or 10 mice (YC-1-S treatment). Tumor weights (B) and body weights of mice (C) in control and YC-1/YC-1-S-treated groups were recorded.
Nu/Nu female mice (four weeks old) were from National Laboratory Animal Center, Taipei, Taiwan. Mice were maintained under procedures and guidelines from the Institutional Animal Care and Use of the National Health Research Institutes. MDA-MB-468 breast cancer cells (5×10^6 cells per mouse) were suspended in 0.1 ml of Matrigel solution (50%, v/v, Matrigel in 1×PBS) and inoculated into the mammary fat pads of nude mice. When the tumor masses reached to 100 mm^3, the tumor bearing mice were randomly divided into different groups for different dosage of YC-1 treatments. The mice were given by intraperitoneal injection with YC-1 or oral administration of YC-1-succinate. Tumor size and body weights of mice were measured once per 3 days and tumor volume (mm^3) was calculated as the equation: length×[…]. At the end of experiments, mice were sacrificed and tumor nodules were dissected and weighted. Tumor tissues were subjected to western blot analysis.

c-Cbl = assay: Western blot of c-Cbl phosphorylation and expression; format: cell-based, human
Protocol: (A) c-Cbl knockdown MDA-MB-468 cells were treated with 3 μM YC-1 for 4 h. Cell were harvested for detection of protein expression. (B) Cells were treated with 3 μM YC-1 for indicated time. Cells were collected and c-Cbl phosphorylation was detected. […] (D) Cells were pretreated with MG-132 and followed by 3 μM YC-1 induction for indicated time. Cells were harvested and lysed for immunoprecipitation assay. The association between c-Cbl and EZH2 were determined by western blotting analysis and probed with anti-EZH2 or anti-c-Cbl antibody. Membranes were stripped and reprobed with anti-c-Cbl or anti-EZH2 antibody to check the input. […] Then cells were collected and lysate protein was subjected for the detection of the c-Cbl-EZH2 complexes. Cells were lysed in PBS containing proteinase inhibitor and phosphatase inhibitors and sonication. Protein concentration was measured using the Bio-Rad protein assay kit (Bio-Rad Laboratories, Hercules, Calif., USA). Lysate protein was separated by electrophoresis of SDS-PAGE and transferred to Immobilon P membrane (EMD Millipore). The membranes were incubated with appropriate primary antibodies and horseradish peroxidase-conjugated secondary antibodies (EMD Millipore). The signaling was visualized using Chemiluminescence substrate kit (EMD Millipore) and collected by the Luminesence image analyzer, LAS4000 (Fuji Photo Film Co., Tokyo, Japan). The band intensities were analyzed and quantified by the Multi Gauge software (Fuji Photo Film).

EZH2 Tyr487 = assay: Western blot of EZH2 phosphorylation; format: cell-based, human; details: 3 μM YC-1
Protocol: (A) MDA-MB-468 cells were incubated with 3 μM YC-1 for indicated time. Cells were harvested for the detection of phospho-Akt (Ser473), Akt, and PCNA. (B) Cells were pretreated with LY294002 (LY, 10 μM) for 1 h followed by 3 μM YC-1 induction for 6 h. (C) MDA-MB-468 cells were incubated with 3 μM YC-1 for indicated time. Cells were harvested for the detection of phospho-CDK1 (Thr161), CDK1, phospho-EZH2 ([…]), EZH2, and β-actin expression with western blot analysis. Levels of EZH2 phosphorylation were calculated by phospho-EZH2 normalized by total EZH2. (D) Cells were treated with YC-1 for 6 h in the absence or presence of roscovitine (Rosc, 20 μM). Cells were harvested and analyzed by western blotting for protein expression. (E) CDK1 knockdown of MDA-MB-468 cells were induced with 3 μM YC-1 for 4 h and followed by western blot analysis.
Cells were lysed in PBS containing proteinase inhibitor and phosphatase inhibitors and sonication. Protein concentration was measured using the Bio-Rad protein assay kit (Bio-Rad Laboratories, Hercules, Calif., USA). Lysate protein was separated by electrophoresis of SDS-PAGE and transferred to Immobilon P membrane (EMD Millipore). […] The band intensities were analyzed and quantified by the Multi Gauge software (Fuji Photo Film).

EZH2 = assay: Western blot of EZH2 protein expression in MDA-MB-468 cells; format: cell-based, human
Protocol: Cells were harvested and performed with western blotting analysis. […] The levels of protein expression were quantitated and shown under blots. (C) Cells were transfected with EZH2 shRNA for 0, 1, 2, 3, and 4 days and collected for determination of cell viability (left) and protein expression (right). (D)(E) After 4 days of EZH2 knockdown, cells were incubated with 3 μM YC-1 for 4 h and detected cell viability (D) and protein contents (E). (F) Tumor specimens were isolated and protein was extracted for western blot analysis.
Cells were lysed in PBS containing proteinase inhibitor and phosphatase inhibitors and sonication. Protein concentration was measured using the Bio-Rad protein assay kit (Bio-Rad Laboratories, Hercules, Calif., USA). Lysate protein was separated by electrophoresis of SDS-PAGE and transferred to Immobilon P membrane (EMD Millipore). The membranes were incubated with appropriate primary antibodies and horseradish peroxidase-conjugated secondary antibodies (EMD Millipore). The signaling was visualized using Chemiluminescence substrate kit (EMD Millipore) and collected by the Luminesence image analyzer, LAS4000 (Fuji Photo Film Co., Tokyo, Japan). The band intensities were analyzed and quantified by the Multi Gauge software (Fuji Photo Film).

In the case of `OCc1ccc(-c2nn(Cc3ccccc3)c3ccccc23)o1` [YC-1, 3-(5′-hydroxymethyl-2′-furyl)-1-benzyl indazole], the tumor growth (MDA-MB-468 xenograft; 30 and 60 mg/kg by intraperitoneal injection) is reported as “significantly inhibited the tumor growth”, the “body weights of mice” value (MDA-MB-468 xenograft; 30 and 60 mg/kg/day ip) is reported as “not affected” and the tumor weight (MDA-MB-468 xenograft; 30 and 60 mg/kg/day ip) is reported as “dose-dependently reduced tumor weight”. The c-Cbl protein expression (c-Cbl; 3 μM YC-1) was “inhibited”, the “c-Cbl Tyr731 and Tyr774 phosphorylation” value (c-Cbl; 3 μM YC-1, after 1 h) was “rapid phosphorylation” and the “phosphorylation of EZH2 Tyr487” value (EZH2 Tyr487) was “no effect”. The “inhibition of EZH2 protein” value (EZH2; 3 μM YC-1, 2 h) was “about 18%” and the IC50 (EZH2; 24 h-incubation, MDA-MB-468, read-out: IC50, inhibition of EZH2 expression) was 540 ± 40 nM.
